Our source for the IC50 values is patent US20240002391A1, “4-ALKOXYPYRROLO[2,1-F][1,2,4]TRIAZINES AND PREPARATION AND USES THEREOF” (BioSplice Therapeutics, Inc., priority 2022, published 2024).

This experiment has as its target recombinant DYRK1A kinase (Homo sapiens (Human), UniProt Q13627). The experiment can be described thus: DYRK1A kinase assay (Ser/Thr 18 peptide Z-lyte FRET). Format: biochemical. The settings on record: DYRK1A kinase activity, Z-lyte Ser/Thr 18 peptide, 15 μM ATP; method text calls the value IC50; read-out: EC50 (the source's name). In outline:
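Z-lyte FRET: recombinant DYRK1A 0.25 μg/mL, ATP 15 μM, Ser/Thr 18 peptide 4 μM, with compound (11-point 1:3, 10 μM top) 1 h at room temperature, then development reagent 1 h. Coumarin/fluorescein emission ratio converted to % phosphorylation; IC50 by non-linear regression, duplicates.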
Turning to `COc1nc(N[C@@H]2CCN(C)C[C@@H]2F)nn2ccc(-c3ccc4nccnc4c3)c12` [Compound 367, N-((3S,4R)-3-Fluoro-1-methylpiperidin-4-yl)-4-methoxy-5-(quinoxalin-6-yl)pyrrolo[2,1-f][1,2,4]triazin-2-amine], the IC50 was 3.3 nM.

Turning to `COc1nc(N[C@H]2CCN(C)C[C@H]2F)nn2ccc(-c3ccc4nccnc4c3)c12` [Compound 368, N-((3R,4S)-3-Fluoro-1-methylpiperidin-4-yl)-4-methoxy-5-(quinoxalin-6-yl)pyrrolo[2,1-f][1,2,4]triazin-2-amine], the IC50 is 4 nM.

Take `COc1nc(N[C@H]2CCN(CCF)C[C@H]2F)nn2ccc(-c3ccc4nccnc4c3)c12` [Compound 372, N-((3R,4S)-3-Fluoro-1-(2-fluoroethyl)piperidin-4-yl)-4-methoxy-5-(quinoxalin-6-yl)pyrrolo[2,1-f][1,2,4]triazin-2-amine]: the IC50 is 4.1 nM.

With `COc1nc(N[C@@H]2CCN(C3COC3)C[C@@H]2F)nn2ccc(-c3ccc4nccnc4c3)c12` [Compound 373, N-((3S,4R)-3-Fluoro-1-(oxetan-3-yl)piperidin-4-yl)-4-methoxy-5-(quinoxalin-6-yl)pyrrolo[2,1-f][1,2,4]triazin-2-amine], the IC50 was found to be 2.9 nM.

Consider `COc1nc(N[C@H]2CCN(C3COC3)C[C@H]2F)nn2ccc(-c3ccc4nccnc4c3)c12` [Compound 374, N-((3R,4S)-3-Fluoro-1-(oxetan-3-yl)piperidin-4-yl)-4-methoxy-5-(quinoxalin-6-yl)pyrrolo[2,1-f][1,2,4]triazin-2-amine], for which the IC50 is 2.9 nM.

Consider `COc1nc(N[C@@H]2CCN(C)CC2(F)F)nn2ccc(-c3ccc4nccnc4c3)c12` [Compound 375, (R)—N-(3,3-Difluoro-1-methylpiperidin-4-yl)-4-methoxy-5-(quinoxalin-6-yl)pyrrolo[2,1-f][1,2,4]triazin-2-amine], for which the IC50 is 3.3 nM.

Regarding `COc1nc(N[C@@H]2CCN(C3COC3)CC2(F)F)nn2ccc(-c3ccc4nccnc4c3)c12` [Compound 379, (R)—N-(3,3-Difluoro-1-(oxetan-3-yl)piperidin-4-yl)-4-methoxy-5-(quinoxalin-6-yl)pyrrolo[2,1-f][1,2,4]triazin-2-amine], the IC50 was determined as 3.3 nM.

As for `COc1nc(NC23CC(N)(C2)C3)nn2ccc(-c3ccc4nccnc4c3)c12` [Compound 381, N1-(4-Methoxy-5-(quinoxalin-6-yl)pyrrolo[2,1-f][1,2,4]triazin-2-yl)bicyclo[1.1.1]pentane-1,3-diamine], the IC50 came out at 2.5 nM.

For the compound `COc1nc(NC23CC(NC(C)=O)(C2)C3)nn2ccc(-c3ccc4nccnc4c3)c12` [Compound 382, N-(3-((4-Methoxy-5-(quinoxalin-6-yl)pyrrolo[2,1-f][1,2,4]triazin-2-yl)amino)bicyclo[1.1.1]pentan-1-yl)acetamide], the IC50 was 1.8 nM.

In the case of `COc1nc(N[C@H]2C[C@]3(CCN3C(C)=O)C2)nn2ccc(-c3ccc4nccnc4c3)c12` [Compound 383, 1-((4s,6r)-6-((4-Methoxy-5-(quinoxalin-6-yl)pyrrolo[2,1-f][1,2,4]triazin-2-yl)amino)-1-azaspiro[3.3]heptan-1-yl)ethan-1-one], the IC50 came out at 1.4 nM.

On to `COc1nc(NC2CC3(COC3)C2)nn2ccc(-c3ccc4nccnc4c3)c12` [Compound 385, 4-Methoxy-5-(quinoxalin-6-yl)-N-(2-oxaspiro[3.3]heptan-6-yl)pyrrolo[2,1-f][11,2,4]triazin-2-amine], for which the IC50 was 1.7 nM.

Regarding `COc1nc(NC2CC3(CCN(C(C)=O)CC3)C2)nn2ccc(-c3ccc4nccnc4c3)c12` [Compound 386, 1-(2-((4-Methoxy-5-(quinoxalin-6-yl)pyrrolo[2,1-f][1,2,4]triazin-2-yl)amino)-7-azaspiro[3.5]nonan-7-yl)ethan-1-one], the IC50 came out at 0.9 nM.

In the case of `COc1nc(N[C@H]2C[C@@H]3CN(C(C)=O)C[C@@H]3C2)nn2ccc(-c3ccc4nccnc4c3)c12` [Compound 387, 1-((3aR,5s,6aS)-5-((4-Methoxy-5-(quinoxalin-6-yl)pyrrolo[2,1-f][1,2,4]triazin-2-yl)amino)hexahydrocyclopenta[c]pyrrol-2(1H)-yl)ethan-1-one], the IC50 is 0.7 nM.

Regarding `COc1nc(N[C@@H]2C[C@@H]3CN(C(C)=O)C[C@@H]3C2)nn2ccc(-c3ccc4nccnc4c3)c12` [Compound 388, 1-((3aR,5r,6aS)-5-((4-Methoxy-5-(quinoxalin-6-yl)pyrrolo[2,1-f][1,2,4]triazin-2-yl)amino)hexahydrocyclopenta[c]pyrrol-2(1H)-yl)ethan-1-one], the IC50 was 1.2 nM.

For `COc1nc(NC2CCC3(CC2)CN(C(C)=O)C3)nn2ccc(-c3ccc4nccnc4c3)c12` [Compound 389, 1-(7-((4-Methoxy-5-(quinoxalin-6-yl)pyrrolo[2,1-f][1,2,4]triazin-2-yl)amino)-2-azaspiro[3.5]nonan-2-yl)ethan-1-one], the IC50 stood at 1.3 nM.

In the case of `COc1nc(NC2CCC3(CC2)COC3)nn2ccc(-c3ccc4nccnc4c3)c12` [Compound 390, 4-Methoxy-5-(quinoxalin-6-yl)-N-(2-oxaspiro[3.5]nonan-7-yl)pyrrolo[2,1-f][1,2,4]triazin-2-amine], the IC50 was determined as 3 nM.

For `C[C@]1(O)C[C@H](Nc2nc(OC3COC3)c3c(-c4ccc5nccnc5c4)ccn3n2)C1` [Compound 391, cis-1-Methyl-3-((4-(oxetan-3-yloxy)-5-(quinoxalin-6-yl)pyrrolo[2,1-f][1,2,4]triazin-2-yl)amino)cyclobutan-1-ol], the IC50 worked out at 7.2 nM.

With `COc1nc(N[C@@H](C)c2ccccn2)nn2ccc(-c3ccn4nccc4c3)c12` [Compound 393, (S)-4-Methoxy-5-(pyrazolo[1,5-a]pyridin-5-yl)-N-(1-(pyridin-2-yl)ethyl)pyrrolo[2,1-f][1,2,4]triazin-2-amine], the IC50 worked out at 178 nM.

`COc1nc(N[C@H]2C[C@@](C)(NC(=O)C3(C#N)CC3)C2)nn2ccc(-c3ccn4nccc4c3)c12` [Compound 394, 1-Cyano-N-((1s,3s)-3-((4-methoxy-5-(pyrazolo[1,5-a]pyridin-5-yl)pyrrolo[2,1-f][1,2,4]triazin-2-yl)amino)-1-methylcyclobutyl)cyclopropane-1-carboxamide]: the IC50 was 2.1 nM.

With `COc1nc(NC2CCC3(CC2)COC3)nn2ccc(-c3ccn4nccc4c3)c12` [Compound 395, 4-Methoxy-5-(pyrazolo[1,5-a]pyridin-5-yl)-N-(2-oxaspiro[3.5]nonan-7-yl)pyrrolo[2,1-f][1,2,4]triazin-2-amine], the IC50 stood at 6.2 nM.

Consider `CNC(=O)c1cnn2ccc(-c3ccn4nc(N[C@H]5CC[C@@H](OC)CC5)nc(OC)c34)cc12` [Compound 399, 5-(4-Methoxy-2-((cis-4-methoxycyclohexyl)amino)pyrrolo[2,1-f][1,2,4]triazin-5-yl)-N-methylpyrazolo[1,5-a]pyridine-3-carboxamide], for which the IC50 was determined as 3.5 nM.

Consider `CNC(=O)c1cnn2ccc(-c3ccn4nc(N[C@H]5CC[C@](C)(O)CC5)nc(OC)c34)cc12` [Compound 401, 5-(2-(((1r,4r)-4-Hydroxy-4-methylcyclohexyl)amino)-4-methoxypyrrolo[2,1-f][1,2,4]triazin-5-yl)-N-methylpyrazolo[1,5-a]pyridine-3-carboxamide], for which the IC50 worked out at 2.7 nM.

In the case of `CNC(=O)c1cnn2ccc(-c3ccn4nc(N[C@H]5CC[C@](C)(OC)CC5)nc(OC)c34)cc12` [Compound 405, 5-(4-Methoxy-2-(((1r,4r)-4-methoxy-4-methylcyclohexyl)amino)pyrrolo[2,1-f][1,2,4]triazin-5-yl)-N-methylpyrazolo[1,5-a]pyridine-3-carboxamide], the IC50 worked out at 0.7 nM.

For the compound `CC[C@]1(O)CC[C@H](Nc2nc(OC)c3c(-c4cc(F)c5nccn5c4)ccn3n2)CC1` [Compound 433, (1r,4r)-1-Ethyl-4-((5-(8-fluoroimidazo[1,2-a]pyridin-6-yl)-4-methoxypyrrolo[2,1-f][1,2,4]triazin-2-yl)amino)cyclohexan-1-ol], the IC50 amounted to 2.6 nM.

Consider `COc1nc(N[C@@H]2CCN(C)CC2(F)F)nn2ccc(-c3cc(F)c4nccn4c3)c12` [Compound 434, (R)—N-(3,3-Difluoro-1-methylpiperidin-4-yl)-5-(8-fluoroimidazo[1,2-a]pyridin-6-yl)-4-methoxypyrrolo[2,1-f][1,2,4]triazin-2-amine], for which the IC50 stood at 4.9 nM.

On to `COc1nc(N[C@@H]2CCN(C3COC3)CC2(F)F)nn2ccc(-c3cc(F)c4nccn4c3)c12` [Compound 435, (R)—N-(3,3-Difluoro-1-(oxetan-3-yl)piperidin-4-yl)-5-(8-fluoroimidazo[1,2-a]pyridin-6-yl)-4-methoxypyrrolo[2,1-f][1,2,4]triazin-2-amine], for which the IC50 amounted to 8.9 nM.

Take `CNC(=O)c1cnc2ccc(-c3ccn4nc(N[C@H]5CC[C@@H](OC)CC5)nc(OC)c34)cn12` [Compound 439, 6-(4-Methoxy-2-((cis-4-methoxycyclohexyl)amino)pyrrolo[2,1-f][1,2,4]triazin-5-yl)-N-methylimidazo[1,2-a]pyridine-3-carboxamide]: the IC50 turned out to be 2.3 nM.

On to `CNC(=O)c1cnc2ccc(-c3ccn4nc(N[C@H]5CC[C@](C)(O)CC5)nc(OC)c34)cn12` [Compound 441, 6-(2-(((1r,4r)-4-Hydroxy-4-methylcyclohexyl)amino)-4-methoxypyrrolo[2,1-f][1,2,4]triazin-5-yl)-N-methylimidazo[1,2-a]pyridine-3-carboxamide], for which the IC50 was found to be 1.1 nM.

Consider `CNC(=O)c1cnc2ccc(-c3ccn4nc(N[C@H]5CC[C@](C)(OC)CC5)nc(OC)c34)cn12` [Compound 445, 6-(4-Methoxy-2-(((1r,4r)-4-methoxy-4-methylcyclohexyl)amino)pyrrolo[2,1-f][1,2,4]triazin-5-yl)-N-methylimidazo[1,2-a]pyridine-3-carboxamide], for which the IC50 is 2.1 nM.
